{"source": "ChEMBL document CHEMBL5108065", "about": "(J Med Chem, 2022)", "key": {"[1]": {"test": "Inhibition of Plasmodium falciparum PMV by FRET assay"}, "[2]": {"test": "Metabolic stability in human hepatocytes assessed as intrinsic clearance measured per 10^6 cells", "type": "functional, Hepatocyte"}, "[3]": {"test": "Lipophilicity, log D of the compound", "type": "physicochemical", "conditions": "octanol/water"}, "Cathepsin D": {"target": "Cathepsin D (Homo sapiens, UniProt P07339)", "sequence (P07339 65-162 limits assumed)": "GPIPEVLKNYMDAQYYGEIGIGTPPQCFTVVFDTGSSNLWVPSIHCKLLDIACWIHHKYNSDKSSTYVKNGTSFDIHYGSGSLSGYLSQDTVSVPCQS", "sequence (P07339 169-412 limits assumed)": "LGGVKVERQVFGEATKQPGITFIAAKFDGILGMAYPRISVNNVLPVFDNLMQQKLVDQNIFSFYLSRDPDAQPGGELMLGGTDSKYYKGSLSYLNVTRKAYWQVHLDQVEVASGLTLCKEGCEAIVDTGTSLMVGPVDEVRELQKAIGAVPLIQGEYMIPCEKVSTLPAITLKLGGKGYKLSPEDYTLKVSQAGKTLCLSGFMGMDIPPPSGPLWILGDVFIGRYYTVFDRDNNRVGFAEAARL", "test": "Inhibition of human cathepsin D"}, "Plasmepsin X": {"target": "Plasmepsin X (Plasmodium falciparum (isolate 3D7), UniProt Q8IAS0)", "sequence (Q8IAS0 whole entry)": "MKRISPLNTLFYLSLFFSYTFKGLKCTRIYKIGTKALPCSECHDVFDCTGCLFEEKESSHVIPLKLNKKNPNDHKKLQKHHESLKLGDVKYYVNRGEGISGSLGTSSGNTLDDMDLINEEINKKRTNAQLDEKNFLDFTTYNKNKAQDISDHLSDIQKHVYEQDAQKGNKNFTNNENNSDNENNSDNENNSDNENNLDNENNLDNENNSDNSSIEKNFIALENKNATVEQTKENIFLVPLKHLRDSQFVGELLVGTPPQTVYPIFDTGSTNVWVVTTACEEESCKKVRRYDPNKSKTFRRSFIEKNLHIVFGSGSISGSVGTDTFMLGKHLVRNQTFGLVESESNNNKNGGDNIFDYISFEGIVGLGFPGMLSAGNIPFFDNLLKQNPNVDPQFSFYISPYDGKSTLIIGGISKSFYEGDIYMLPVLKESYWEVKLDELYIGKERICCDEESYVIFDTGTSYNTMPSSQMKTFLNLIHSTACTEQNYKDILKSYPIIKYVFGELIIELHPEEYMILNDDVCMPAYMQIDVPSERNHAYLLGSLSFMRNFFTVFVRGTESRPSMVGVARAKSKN", "test": "biochemical", "description": "Inhibition of Plasmodium falciparum recombinant C-terminal TEV cleavable 8his-tagged PMX by FRET assay"}, "[4]": {"test": "Inhibition of Plasmodium vivax PMX by FRET assay"}, "[5]": {"test": "Solubility of the compound in FeSSIF at pH 5.8", "type": "physicochemical", "conditions": "simulated gi fluid"}, "Plasmodium falciparum [6]": {"tested_on": "Plasmodium falciparum", "test": "Antiplasmodial activity against sensitive Plasmodium falciparum NF54 infected in human red blood cells assessed as reduction in [3H]-hypoxanthine incorporation pretreated for 48 hrs followed by [3H]-hypoxanthine addition measured after 24 hrs by scintillation counting method", "type": "functional, organism-based"}, "Plasmodium falciparum [7]": {"tested_on": "Plasmodium falciparum", "test": "Antimalarial activity against Plasmodium falciparum K1 harbouring Pf-crt, Pf-mdrl,Pf-dhfr, Pf-dhps mutated loci assessed as inhibition of parasite growth pretreated for 48 hrs followed by [3H]-hypoxanthine addition measured after 24 hrs by scintillation counting method", "type": "functional, organism-based"}, "Plasmodium falciparum [8]": {"tested_on": "Plasmodium falciparum", "test": "Antimalarial activity against Plasmodium falciparum TM90C2b harbouring Pf-crt, Pf-mdrl,Pfd-hfr, Pf-cytbQ0 mutated loci assessed as inhibition of parasite growth pretreated for 48 hrs followed by [3H]-hypoxanthine addition measured after 24 hrs by scintillation counting method", "type": "functional, organism-based"}, "Plasmodium falciparum [9]": {"tested_on": "Plasmodium falciparum", "test": "Antimalarial activity against Plasmodium falciparum Dd2048 harbouring pfpi4k mutated loci assessed as inhibition of parasite growth pretreated for 48 hrs followed by [3H]-hypoxanthine addition measured after 24 hrs by scintillation counting method", "type": "functional, organism-based"}, "Plasmodium falciparum [10]": {"tested_on": "Plasmodium falciparum", "test": "Antimalarial activity against DDD107498 resistant Plasmodium falciparum Dd2 harbouring pfeef2 mutated loci assessed as inhibition of parasite growth pretreated for 48 hrs followed by [3H]-hypoxanthine addition measured after 24 hrs by scintillation counting method", "type": "functional, organism-based"}, "Plasmodium falciparum [11]": {"tested_on": "Plasmodium falciparum", "test": "Antimalarial activity against DSM265 resistant Plasmodium falciparum Dd2 harbouring pf-dhodh mutated loci assessed as inhibition of parasite growth pretreated for 48 hrs followed by [3H]-hypoxanthine addition measured after 24 hrs by scintillation counting method", "type": "functional, organism-based"}, "Plasmodium falciparum [12]": {"tested_on": "Plasmodium falciparum", "test": "Antimalarial activity against ELQ300 resistant Plasmodium falciparum Dd2 harbouring pfcytB mutated loci assessed as inhibition of parasite growth pretreated for 48 hrs followed by [3H]-hypoxanthine addition measured after 24 hrs by scintillation counting method", "type": "functional, organism-based"}, "Plasmodium falciparum [13]": {"tested_on": "Plasmodium falciparum", "test": "Antimalarial activity against KAF156 resistant Plasmodium falciparum Dd2 harbouring pf-carl mutated loci assessed as inhibition of parasite growth pretreated for 48 hrs followed by [3H]-hypoxanthine addition measured after 24 hrs by scintillation counting method", "type": "functional, organism-based"}, "Renin": {"target": "T1, Renin (Homo sapiens, UniProt P00797)", "T1 sequence (P00797 whole entry)": "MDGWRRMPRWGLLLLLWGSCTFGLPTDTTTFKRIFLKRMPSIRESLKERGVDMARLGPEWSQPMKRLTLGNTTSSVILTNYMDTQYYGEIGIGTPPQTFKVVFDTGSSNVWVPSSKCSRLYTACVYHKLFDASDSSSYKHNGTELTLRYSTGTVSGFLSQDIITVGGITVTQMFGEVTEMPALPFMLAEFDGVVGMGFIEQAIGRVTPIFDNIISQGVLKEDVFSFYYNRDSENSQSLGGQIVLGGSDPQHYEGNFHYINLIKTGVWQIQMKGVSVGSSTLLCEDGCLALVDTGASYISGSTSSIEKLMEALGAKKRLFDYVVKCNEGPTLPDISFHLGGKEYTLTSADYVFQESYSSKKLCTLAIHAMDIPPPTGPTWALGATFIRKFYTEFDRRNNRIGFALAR", "test": "Inhibition of human renin"}, "Homo sapiens": {"species": "Homo sapiens", "test": "Inhibition of BACE (unknown origin) at 10 uM relative to control"}, "[14]": {"test": "Inhibition of BACE (unknown origin)", "set-up": "species or system Homo sapiens"}}, "data": [{"smiles": "C[C@@]1(c2cccc(NC(=O)c3ccccc3)c2Cl)CC(=O)N(C2CCOCC2)C(=N)N1", "values": [{"measurement": "IC50", "setting": "[1]", "value": "> 5000", "unit": "nM"}, {"measurement": "intrinsic clearance", "setting": "[2]", "value": 4, "unit": "µL/min"}, {"measurement": "logD", "setting": "[3]", "value": 1.2}, {"measurement": "IC50", "setting": "Cathepsin D", "value": "> 10000", "unit": "nM"}, {"measurement": "IC50", "setting": "Plasmepsin X", "value": 32, "unit": "nM"}]}, {"smiles": "C[C@@]1(c2cccc(Nc3ccccc3)c2Cl)CC(=O)N(C2CCOCC2)C(=N)N1", "values": [{"measurement": "IC50", "setting": "[4]", "value": 31, "unit": "nM"}, {"measurement": "IC50", "setting": "[1]", "value": 2700, "unit": "nM"}, {"measurement": "intrinsic clearance", "setting": "[2]", "value": 28, "unit": "µL/min"}, {"measurement": "solubility", "setting": "[5]", "value": 1057, "unit": "µM"}, {"measurement": "logD", "setting": "[3]", "value": 2.2}, {"measurement": "IC50", "setting": "Cathepsin D", "value": 58, "unit": "nM"}, {"measurement": "IC50", "setting": "Plasmodium falciparum [6]", "value": 107, "unit": "nM"}, {"measurement": "IC50", "setting": "Plasmodium falciparum [7]", "value": 112, "unit": "nM"}, {"measurement": "IC50", "setting": "Plasmodium falciparum [8]", "value": 62, "unit": "nM"}, {"measurement": "IC50", "setting": "Plasmodium falciparum [9]", "value": 87, "unit": "nM"}, {"measurement": "IC50", "setting": "Plasmodium falciparum [10]", "value": 82, "unit": "nM"}, {"measurement": "IC50", "setting": "Plasmodium falciparum [11]", "value": 78, "unit": "nM"}, {"measurement": "IC50", "setting": "Plasmodium falciparum [12]", "value": 96, "unit": "nM"}, {"measurement": "IC50", "setting": "Plasmodium falciparum [13]", "value": 83, "unit": "nM"}, {"measurement": "IC50", "setting": "Plasmepsin X", "value": 15, "unit": "nM"}]}, {"smiles": "C[C@@]1(c2cccc(Nc3ccc(C4CC4)nc3)c2Cl)CC(=O)N(C2CCOCC2)C(=N)N1", "values": [{"measurement": "intrinsic clearance", "setting": "[2]", "value": 3, "unit": "µL/min"}, {"measurement": "solubility", "setting": "[5]", "value": 1161, "unit": "µM"}, {"measurement": "logD", "setting": "[3]", "value": 2.1}, {"measurement": "IC50", "setting": "Cathepsin D", "value": 1190, "unit": "nM"}, {"measurement": "IC50", "setting": "Renin", "value": 1070, "unit": "nM"}, {"measurement": "inhibition", "setting": "Homo sapiens", "value": 52, "unit": "%"}, {"measurement": "IC50", "setting": "Plasmepsin X", "value": 37, "unit": "nM"}]}, {"smiles": "[H]/N=C1\\N[C@](C)(c2cccc(Nc3cnc(C4CC4)nc3)c2Cl)CC(=O)N1[C@H]1CCO[C@@H](C)C1", "values": [{"measurement": "intrinsic clearance", "setting": "[2]", "value": 4, "unit": "µL/min"}, {"measurement": "solubility", "setting": "[5]", "value": 1372, "unit": "µM"}, {"measurement": "logD", "setting": "[3]", "value": 2}, {"measurement": "IC50", "setting": "Cathepsin D", "value": 215, "unit": "nM"}, {"measurement": "IC50", "setting": "Renin", "value": 2360, "unit": "nM"}, {"measurement": "IC50", "setting": "[14]", "value": "> 10", "unit": "µM"}, {"measurement": "IC50", "setting": "Plasmepsin X", "value": 9, "unit": "nM"}]}]}
